{"source": "patent US20040116351A1", "about": "“Method for enhancing the natural reward system for exercise” (FAST BALANCE, INC., priority 2002, published 2004)", "origin": "cited, not measured here", "details": "administered PEA", "data": [{"smiles": "NCCc1ccccc1", "note": "[PEA, phenylethylamine]", "values": [{"measurement": "Time PEA lasts in the body", "result": "≤ 10", "unit": "min"}]}]}
